{"source": "patent US6544992B1", "about": "“Urotensin-II receptor antagonists” (SmithKline Beecham Corporation, priority 1999, dated 2003)", "key": {"human and rat GPR-14": {"tested_on": "human and rat GPR-14", "experiment": "Radioligand binding, [125I] h-U-II on HEK-293 cell membranes", "conditions": "radioligand binding assay; species of GPR-14 not given", "method": "HEK-293 cell membranes containing stable cloned human and rat GPR-14 (20 ug/assay) were incubated with 200 pM [125I] h-U-II (200 Ci/mmol^−1 in the presence of increasing concentrations of test compounds in DMSO (0.1 nM to 10 uM), in a final incubation volume of 200 ul (20 mM Tris-HCl, 5 mM MgCl2). Incubation was done for 30 minutes at room temperature followed by filtration GF/B filters with Brandel cell harvester. ^125I labeled U-II binding was quantitated by gamma counting. Nonspecific binding was defined by ^125I U-II binding in the presence of 100 nM of unlabeled human U-II. Analysis of the data was performed by nonlinear least square fitting."}, "rat-isolated aorta": {"tested_on": "rat-isolated aorta", "conditions": "cited from earlier work"}}, "data": [{"smiles": "O=C(NC1CCN(Cc2ccc(OCCN3CCCC3)c3ccccc23)C1)c1ccc(Cl)c(Cl)c1", "note": "(centres unmarked) [Example 13]", "values": [{"measurement": "Ki", "setting": "human and rat GPR-14", "value": 360, "unit": "nM"}]}, {"smiles": "CC(C)[C@H](NC(=O)[C@@H]1CSSC[C@H](NC(=O)[C@H](CC(=O)O)NC(=O)[C@@H]2CCCN2C(=O)[C@@H](NC(=O)[C@@H](N)CCC(=O)O)[C@@H](C)O)C(=O)N[C@@H](Cc2ccccc2)C(=O)N[C@@H](Cc2c[nH]c3ccccc23)C(=O)N[C@@H](CCCCN)C(=O)N[C@@H](Cc2ccc(O)cc2)C(=O)N1)C(=O)O", "note": "[Human Urotensin-II]", "values": [{"measurement": "contractile activity", "setting": "rat-isolated aorta", "value": "most potent contractile agonist identified to date"}]}]}
